Assay results reported in patent US20100009970A1, “COMPOSITIONS AND METHODS FOR TREATMENT OF VIRAL DISEASES” (Combinatorx (Singapore) Pte. Ltd., priority 2008, published 2010).
Values joined by “and” are separate entries in the source; they are usually repeats but may differ in a detail not shown here. Equal values may be shown once. Where a name gives a salt, the structure may show the parent alone. Read-outs that look alike come from different tables or passages of the source.

Columns and labels:
[1] = test system: Huh7 cells expressing a subgenomic RNA replicon of Con1 (genotype 1b) sequence origin
[2] = test system: Huh7 cells expressing a subgenomic RNA replicon of Con1 (genotype 1b) sequence origin; experiment: microbe, parasite or virus in culture; details: Hepatitis C virus
in vitro = details: human
[3] = in vivo
NRI = NRI (Homo sapiens, UniProt P23975); type: binding
[4] = Huh-7, read-out: IC50 (uM) [SG]
[5] = Huh-7, read-out: Max Effect@CC30 (inhibition)
[6] = Huh-7, read-out: Max effect @CC30 (%)
[7] = GETYPE1B, Huh-7, 72 h, read-out: Max Effect @CC30 (inhibition)
[8] = Huh-7, 48 h, read-out: Max Effect
[9] = Huh-7, read-out: Max Effect @CC30 (inhibition)

Chain of NRI (P23975 whole entry): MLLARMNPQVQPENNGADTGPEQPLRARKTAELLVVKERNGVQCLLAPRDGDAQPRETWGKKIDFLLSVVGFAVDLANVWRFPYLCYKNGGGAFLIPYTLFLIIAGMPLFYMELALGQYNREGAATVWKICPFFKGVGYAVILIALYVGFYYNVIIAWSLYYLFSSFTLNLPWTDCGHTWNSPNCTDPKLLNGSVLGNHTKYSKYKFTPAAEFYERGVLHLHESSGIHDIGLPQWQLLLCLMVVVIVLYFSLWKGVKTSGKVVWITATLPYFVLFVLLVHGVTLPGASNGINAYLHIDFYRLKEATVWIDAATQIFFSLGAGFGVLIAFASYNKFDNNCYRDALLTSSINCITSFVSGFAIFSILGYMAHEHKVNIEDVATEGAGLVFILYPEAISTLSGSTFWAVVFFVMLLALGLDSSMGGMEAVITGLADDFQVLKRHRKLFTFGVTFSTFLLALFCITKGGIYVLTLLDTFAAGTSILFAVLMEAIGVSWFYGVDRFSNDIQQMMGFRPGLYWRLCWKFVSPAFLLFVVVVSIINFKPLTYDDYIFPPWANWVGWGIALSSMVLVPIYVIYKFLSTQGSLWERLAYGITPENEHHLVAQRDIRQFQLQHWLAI

Row | SMILES | IC50 ([1]; read-out: IC50 (uM) [SG]) | IC50 ([2]; Huh-7) | IC90 ([2]; Huh-7) | IC50 [2, 4] | Emax [2, 5] | CC50 (in vitro; CC50 (uM)) | CC50 (in vitro; CC50 (uM) [SG]) | CC50 (Huh7 parental cells; human) | CC50 (Huh7 parental cells) | Max Effect@CC30 (inhibition) [1] | also measured
1 | CN[C@H]1CC[C@@H](c2ccc(Cl)c(Cl)c2)c2ccc(CS(C)(=O)=O)cc21 [(1S,4S)-4-(3,4-dichlorophenyl)-N-methyl-7-(methylsulfonylmethyl)-1,2,3,4-tetrahydronaphthalen-1-amine] | 2.33 µM | 1.68 µM | 7.89 µM | 1.68 µM | 84.8% | 13 µM | 13 µM | 14.2 µM | – | – | Emax [2, 6]: 84.8%; IC50 ([2]; Huh-7, read-out: SA IC50 (uM)): 1.68 µM
2 | CNC1CCC(c2ccccc2OC)c2ccccc21 (stereo not shown) [Sertraline B-Ring Ortho-Methoxy] | – | – | – | – | – | – | – | – | > 22.3 µM | – | Max Effect [1]: 24%; Synergy Score [1]: 0.81
3 | CN[C@H]1CC[C@@H](c2ccc(Cl)c(Cl)c2)c2ccc(NS(C)(=O)=O)cc21 [Sertraline (Reverse) Methanesulfonamide, N-((5S,8S)-5-(3,4-dichlorophenyl)-8-(methylamino)-5,6,7,8-tetrahydronaphthalen-2-yl)methanesulfonamide] | – | – | – | 3.99 ± 0.8 µM | 83.3 ± 20.2% | 12.9 ± 0.3 µM | 12.9 ± 0.3 µM | – | – | – | Emax [2, 7]: 83.3 ± 20.2%; IC50 ([2]; Huh-7, 48 h): 6.43 µM; Emax [2, 8]: 95%; IC50 ([2]; Huh-7, 72 h): 3.99 ± 0.8 µM; Emax [2, 6]: 83.3 ± 20.2%; IC50 ([2]; Huh-7, read-out: SA IC50 (uM)): 3.99 ± 0.8 µM; Pharmcokinetics: Brain levels compared with sertraline [3]: lower sertraline; Pharmcokinetics: Liver levels compared with sertraline [3]: much greater; Pharmcokinetics: overall assessment [3]: Optimal PK, Liver levels; BBB/Neurotransmitter Binding (nM) NRI (NRI): 60 nM; CC50 (in vitro; CC50): 12.9 µM
4 | CN[C@H]1CC[C@@H](c2ccc(Cl)c(Cl)c2)c2ccc(CN)cc21 [Sertraline A-Ring Methanamine, (1S,4S)-7-(aminomethyl)-4-(3,4-dichlorophenyl)-N-methyl-1,2,3,4-tetrahydronaphthalen-1-amine] | 1.67 µM | 1.6 µM | 3.28 µM | 1.59 µM | 85.9% | 3.7 µM | 3.7 µM | 3.68 µM | – | – | Emax [2, 9]: 85.9%; Emax [2, 6]: 85.9%; IC50 ([2]; Huh-7, read-out: SA IC50 (uM)): 1.59 µM
5 | CNC1CCC(c2cccc(OC)c2)c2ccccc21 (stereo not shown) [Sertraline B-ring m-Methoxy] | – | – | – | – | – | – | – | – | > 50 µM | 27.70% | –
6 | CNC1CCC(c2ccccc2OC)c2ccccc21 (stereo not shown) [Sertraline B-ring Ortho Methoxy, 4-(2-methoxyphenyl)-N-methyl-1,2,3,4-tetrahydronaphthalen-1-amine] | – | – | – | – | – | 58.6 µM | 58.6 µM | > 50 µM | – | – | –
7 | CN[C@H]1CC[C@@H](c2ccc(Cl)c(Cl)c2)c2ccccc21.Cl [(1R,4S) Sertraline Hydrochloride] | – | – | – | – | – | – | – | – | 14.2 ± 0.16 µM | 90.8 ± 1.6% | IC90 ([1]; Hydrochloride): 12.1 ± 0.83 µM
8 | CN[C@H]1CC[C@@H](c2ccc(Cl)c(Cl)c2)c2ccccc21 [Sertraline HCL, Sertraline HCl, reference compound] | – | – | – | – | 62.6 ± 21.5% | – | 11.7 ± 2.03 µM | 11.3 µM | – | – | Emax [2, 7]: 62 ± 11.2%; CC50 at 72 h (in vitro; CC50 (uM)): 11.8 ± 2.09 µM
9 | CNC1CCC(c2cccs2)c2ccccc21 (stereo not shown) [Sertraline B-ring 2-Thiophene] | 52.3 µM | – | – | – | – | – | – | – | 88.5 µM | 42% | –
10 | CN[C@H]1CC[C@H](c2ccc(Cl)c(Cl)c2)c2ccccc21.Cl [(1S,4R) Sertraline Hydrochloride] | – | – | – | – | – | – | – | – | 7.51 ± 0.8 µM | 50 ± 17.4% | –
11 | CNC1CCC(c2ccc(C(F)(F)F)cc2)c2ccccc21 (stereo not shown) [Sertraline B-Ring para-Trifluoromethane, N-methyl-4-(4-(trifluoromethyl)phenyl)-1,2,3,4-tetrahydronaphthalen-1-amine] | – | – | – | 13.4 µM | 0% | 14.2 µM | 14.2 µM | – | – | – | Synergy Score [1]: 1.93; TI (CC50/IC50) [1]: 1.299; Emax [2, 7]: 0%; IC50 ([2]; Huh-7, 48 h): 12.2 µM; Emax [2, 8]: 99%; IC50 ([2]; Huh-7, 72 h): 13.4 µM; CC50 (in vitro; CC50): 15.9 µM
12 | CNCc1cc(S(N)(=O)=O)ccc1Oc1ccc(SC)c(C)c1 [Compound 48, 4-(3-methyl-4-(methylthio)phenoxy)-3-((methylamino)methyl)benzenesulfonamide] | 2.26 ± 0.11 µM | 2.33 µM | 10 µM | 2.33 µM | 95.5% | 39.6 µM | 39.6 µM | > 50 µM | – | – | IC90 [1]: 8.26 ± 2.49 µM; Emax [2, 6]: 95.5%; IC50 ([2]; Huh-7, read-out: SA IC50 (uM)): 2.33 µM
13 | CN[C@H]1CC[C@@H](c2ccc(Cl)c(Cl)c2)c2ccc(CO)cc21 [Sertraline A-Ring Ethanol, ((5S,8S)-5-(3,4-dichlorophenyl)-8-(methylamino)-5,6,7,8-tetrahydronaphthalen-2-yl)methanol] | – | – | 11.3 ± 2.91 µM | 2.85 ± 1.21 µM | 92 ± 5.6% | 14.2 ± 0.3 µM | 14.2 ± 0.3 µM | – | – | – | Synergy Score [1]: 1.46; TI (CC50/IC50) [1]: 2.472; Emax [2, 7]: 92 ± 5.6%; IC50 ([2]; Huh-7, 48 h): 4.48 µM; Emax [2, 8]: 97%; IC50 ([2]; Huh-7, 72 h): 2.85 ± 1.21 µM; IC90 ([2]; Huh-7, 72 h): 11.3 ± 2.91 µM; CC50 (in vitro; CC50): 11.1 µM
14 | Cl.N[C@H]1CC[C@@H](c2ccc(Cl)c(Cl)c2)c2ccccc21 [(1S,4S)-Desmethyl Sertraline, Hydrochloride] | – | – | – | – | – | – | – | – | 6.68 µM | – | IC50 [1]: 5.35 µM; Max Effect [1]: 98%; Synergy Score [1]: 2.14; TI (CC50/IC50) [1]: 1.247
15 | COC1CC[C@@H](c2ccc(Cl)c(Cl)c2)c2ccccc21 (stereo partly drawn) [Methoxy 4S-Sertraline] | – | 22.7 µM | – | – | – | > 50 µM | – | – | – | 93.98% and 47.76% | IC50 [1]: 26.4 µM; IC90 [1]: 46.1 µM and 46.9 µM
16 | CN(C)[C@H]1CC[C@@H](c2ccc(Cl)c(Cl)c2)c2ccc(C(N)=O)cc21 [(5S,8S)-5-(3,4-dichlorophenyl)-8-(dimethylamino)-5,6,7,8-tetrahydronaphthalene-2-carboxamide] | 3.18 µM | 2.96 µM | 8.77 ± 0.05 µM | 2.62 ± 0.48 µM | 94.3 ± 0.7% | 20.7 µM | 21.7 ± 1.44 µM | 23.7 µM | – | – | IC90 [1]: 8.73 µM; Emax [2, 9]: 94.8%
17 | CSc1ccc(Oc2ccc(Br)cc2CN(C)C)cc1C [Compound 9, (5-bromo-2-(3-methyl-4-(methylthio)phenoxy)phenyl)-N,N-dimethylmethanamine] | – | – | – | 14.5 µM | 79% | – | 54.8 µM | > 50 µM | – | – | –
18 | NC1CCC(c2ccc(Cl)c(Cl)c2)c2ccccc21 (racemic) | – | – | – | – | – | – | – | – | – | – | Synergy Score [1]: 1.51; TI (CC50/IC50) [1]: 1.252; IC50 ([2]; Huh-7, 48 h): 6.26 µM; Emax [2, 8]: 99%; CC50 (in vitro; CC50): 7.84 µM
19 | CN[C@H]1CC[C@@H](c2ccc(Cl)c(Cl)c2)c2ccc(NS(=O)(=O)C3CC3)cc21 [N-((5S,8S)-5-(3,4-dichlorophenyl)-8-(methylamino)-5,6,7,8-tetrahydronaphthalen-2-yl)cyclopropanesulfonamide] | – | 5.63 µM | 10.7 µM | 5.62 µM | 58.8% | 7.45 µM | 7.45 µM | – | – | 56.82% | –
20 | CN(C)[C@H]1CC[C@@H](c2ccc(Cl)c(Cl)c2)c2ccc(C(=O)NC3CC3)cc21 [N,N-Dimethyl Sertraline A-Ring Reverse Cyclopropane Carboxam] [(5S,8S)—N-cyclopropyl-5-(3,4-dichlorophenyl)-8-(dimethylamino)-5,6,7,8-tetrahydronaphthalene-2-carboxamide] | 8.63 µM | – | – | – | – | – | – | 18.2 µM | – | – | –
